System: laser-induced choroidal neovascularization
Assay: Laser induction of choroidal neovascularization in mice, oral treatment
Assay type: in vivo, C57BI6 mice
Conditions: 30 mg/kg/day orally during the last 7 days, day 14 after induction
Method: C57BI6 mice were used in these experiments. A model of laser-induced choroidal neovascularization (4 impacts per eye around the papilla) was applied to the animals as described by Tobe et al. Am. J. Pathol., 1998).
On day 14 after the induction and after monitoring by angiography, which makes it possible to estimate the percentage of lesions developing neovascularization, the animals are sacrificed and the eyeballs are enucleated for histological analysis. The mice are treated orally with one of the compounds of formula (I) during the last 7 days. The dose chosen for the monohydrate of the sodium salt of 2-amino-5-[(1-methoxy-2-methylindolizin-3-yl)carbonyl]benzoic acid is 30 mg/kg/day. The vehicle used is a 0.6% solution of methylcellulose in water.
Four mice are used for the control group and six mice for the treated group.
The size of the neovascular reaction is estimated from frozen sections by morphometric evaluations of the thickness using a computerized image analysis system. […]
Estimation is carried out by measuring the B/C ratio between, on the one hand, the EPR and the peak of the neovascular reaction (“B”), and, on the other hand, the thickness of the adjacent intact choroidal layer (“C”). This quantifying system was preferred to measuring surface areas of lesions as it is independent of the orientation of the histological sections.

## COc1c(C)c(C(=O)c2ccc(N)c(C(=O)O)c2)n2ccccc12 [2-amino-5-[(1-methoxy-2-methylindolizin-3-yl)carbonyl]benzoic acid]
  histological analysis and anti-CD31 immunohistochemistry of the laser impact sites: only a moderate thickening of the choriocapillary where the impacts occurred, without obvious sign of neovascularization
Frozen sections, morphometric thickness, p<0.001
  reduction of the laser-induced neovascular reaction, quantified by the B/C ratio, in comparison with the control mice: ~50%
